# In patent US20060073504A1, “Treatment of pain by inhibition of caspase signaling” (The Regents of the University of California, priority 2004, published 2006):
# “Also recorded” adds a separate entry of the source. Structures can show the parent of a compound that is named as a salt. Where two headings read alike, the source gives them in different places. * marks the point of attachment. Cbz = O=C(OCc1ccccc1)*; CH2F = FC*
# Key:
# [1] = system: mechanical hyperalgesia induced by 2′,3′-dideoxycytidine (ddC); assay: ddC-induced mechanical hyperalgesia, paw-withdrawal threshold (Ugo Basile Analgesymeter); format: in vivo, rat; conditions: inhibitor 5 μg i.d. hind paw, day 5 after ddC 50 mg/kg i.v., read 30 min after inhibitor, p<0.05
# Procedure: (§1) Experiments were performed on 220-260-g male Sprague-Dawley rats (Charles River, Fremont, Calif., USA). Rats were housed in groups of 2 under a 12-h light-dark cycle. Food and water were available ad libitum. Experiments were carried out in accordance with NIH regulations for the care and use of animals in research, and under approval of the Institutional Animal Care and Use Committee of the University of California, San Francisco.
# (§2) The nociceptive mechanical flexion reflex was quantified with an Ugo Basile Analgesymeter® (Stoelting, Chicago, Ill.), which applies a linearly increasing mechanical force to the dorsum of the rat's hind paw. Mechanical paw-withdrawal thresholds were determined in control (saline treated) and test agent treated rats. Four readings were taken at 5-min intervals and the mean of the last three readings were used to define the baseline paw-withdrawal threshold (Aley and Levine, 1999; Aley et al., 2001). The time at which the readings were taken was based on the time course of each test agent (described in results).
# (§3) Algesic agents employed in this study were: vincristine sulfate (VCR), 2′,3′-dideoxycytidine (ddC), streptozotocin sulfate (STZ), tumor necrosis factor-α (TNFα) prostaglandin E2 (PGE2), epinephrine (Epi) (Sigma, St. Louis, Mo.) and N-Acetyl Sphingosine (C2-Ceramide obtained from Upstate USA, Inc, Lake Placid, N.Y.). Doses of the algesic agents were, VCR (200 μg/kg), ddC (50 mg/kg), STZ (50 mg/kg), PGE2 (100 ng/paw) and Epi (100 ng/paw). A single i.v. injection of VCR (200 μg/kg) produced significant mechanical hyperalgesia (>30 % reduction in paw-withdrawal threshold). This effect reached maximum on day 5 following the drug administration and was persistent for more then 15 days (Joseph, 2003 #5). STZ (50 mg/kg, i.v.×1), induced diabetes in rats, as indicated by with a blood glucose level >300 mg/dL, and a nociceptive threshold reduction (>30%). This effect reached maximum on day 3 following administration of the neuropathy inducing drug and was persistent for over 15 days (Joseph, 2003 #4).
# (§4) TNFα, C2-Ceramide, PGE2, Epi, and all the inhibitors (see Table I) were administered intradermally (i.d.) on the dorsal surface of the hind paw in a volume of 2.5-5.0 μl, via a 30-gauge hypodermic needle. In co-injection experiments, agents were separated by very small air pockets, in one syringe, so that they could be administered with a single cutaneous needle penetration. As a control, all inhibitors were studied for independent effects on baseline nociceptive threshold. Inhibitors were either co-injected (with TNFα, C2-Ceramide, PGE2, and Epi) or administered on day five following the administration of VCR, ddC and STZ. Drugs were either dissolved in saline (VCR, ddC, STZ, TNF-α, PGE2, Epi) or in 10% DMSO (C2-Ceramide and inhibitors).
# (§5) Group data are presented as % reduction in nociceptive threshold (mean+/±SEM) and comparisons between groups performed using Student's t-test (paired or unpaired, as appropriate). A probability of p<0.05 was considered statistically significant.
# FIG. 1 depicts the effect of inhibitors of caspases administered in the hind paw of the rat, on mechanical hyperalgesia induced by the AIDS therapy drug 2′,3′-dideoxycytidine (ddC). The effect of inhibitors of caspase 1 (BACMK), 2 (Z-VDAD-FMK), 3 (Ac-DMQD-CHO), 8 (IETD-CHO), 9 (Z-LEHD-FMK.TFA), the non-selective broad-spectrum caspase inhibitor (NS) Z-VAD-FMK and the negative control for the non-selective broad-spectrum caspase inhibitor Z-FA-FMK [NS (Con)] on the nociceptive paw-withdrawal thresholds of rats were evaluated. Paw-withdrawal thresholds were measured on the 5th day after injection of ddC and 30 min after the administration of inhibitors. N=8/group, *=p<0.05, with respect to mechanical nociceptive threshold prior to injection of the inhibitor.
# [2] = system: mechanical hyperalgesia induced by vincristine (VCR); assay: Vincristine-induced mechanical hyperalgesia, paw-withdrawal threshold; format: in vivo, rat; conditions: inhibitor 5 μg i.d. hind paw, day 5 after VCR 200 μg/kg i.v., read 30 min after inhibitor, p<0.05
# Procedure: as §1, §2, §3, §4, §5
# FIG. 2 depicts the effect of inhibitors of caspases, administered in the hind paw of the rat, on mechanical hyperalgesia induced by the cancer chemotherapy drug Vincristine (VCR). The effect of inhibitors of caspase 1, 2, 3, 8, 9, the non-selective broad-spectrum caspase inhibitor (NS) and the negative control for the non-selective broad-spectrum caspase inhibitor [NS (Con)] on the nociceptive paw-withdrawal thresholds were evaluated. Paw-withdrawal thresholds were measured on the 5th day after injection of VCR and 30 min after the administration of the inhibitors. N=8/group, *=p<0.05, with respect to the value prior to injection of the inhibitor.
# [3] = system: mechanical nociceptive threshold; assay: Effect of algesic agents on mechanical nociceptive (paw-withdrawal) threshold; format: in vivo, rat; conditions: for effect on mechanical nociceptive threshold, dose response: intradermal injection, TNFα 1 ng-1 μg, C2-ceramide 1 μg-20 μg; for reduction in nociceptive threshold: 100 ng/paw i.d.
# Procedure: as §1, §2
# (§6) Algesic agents employed in this study were: vincristine sulfate (VCR), 2′,3′-dideoxycytidine (ddC), streptozotocin sulfate (STZ), tumor necrosis factor-α (TNFα) prostaglandin E2 (PGE2), epinephrine (Epi) (Sigma, St. Louis, Mo.) and N-Acetyl Sphingosine (C2-Ceramide obtained from Upstate USA, Inc, Lake Placid, N.Y.). Doses of the algesic agents were, VCR (200 μg/kg), ddC (50 mg/kg), STZ (50 mg/kg), PGE2 (100 ng/paw) and Epi (100 ng/paw).
# (§7) Inhibitors of caspases and neutral sphingomyelinase are described in Table I, which is repeated for convenience. The doses of TNFα (100 ng) and C2-Ceramide (10 μg) were based on dose response experiments performed as part of this study. VCR, STZ, and ddC were administered intravenously (i.v.) in a volume of 1 ml/kg, followed by 0.5 ml saline. Control rats received equal volume of saline.
# as §4
# FIG. 3 depicts: A. Dose response (1 ng-1 μg) curve for the effect of TNF-α on mechanical nociceptive threshold, and B. Onset and time course of mechanical hyperalgesia induced by 100 ng of TNF-α. N=6/group.
# FIG. 5 depicts the dose response (1-20 μg) curve for the effect of ceramide on the mechanical nociceptive threshold. N=6/group.
# [4] = system: mechanical hyperalgesia induced by TNF-α; assay: TNFα-induced mechanical hyperalgesia, inhibitors co-injected; format: in vivo, rat; conditions: read at 30 min
# Procedure: as §1, §2
# as §7, with “of saline. […]” for “of saline.”
# FIG. 4 depicts the effect of inhibitors of caspases and sphingomyelinase on mechanical hyperalgesia induced by tumor necrosis factor alpha (TNF-α). The effect of inhibitors of caspase 1, 2, 3, 8, 9, the non-selective broad-spectrum caspase inhibitor (NS), the negative control for the non-selective broad-spectrum caspase inhibitor [NS (Con)], and the neutral sphingomyelinase inhibitor (GW4869) on the nociceptive paw-withdrawal thresholds of rats was evaluated. The inhibitors were co-injected with TNF-α and the paw-withdrawal thresholds measured 30 min after the drug administration. […]
# [5] = system: mechanical nociceptive threshold; conditions: cited from earlier work
# [6] = STZ 50 mg/kg i.v. ×1; cited from earlier work
# [7] = system: mechanical hyperalgesia induced by ceramide; assay: C2-ceramide-induced mechanical hyperalgesia, inhibitors co-injected; format: in vivo, rat; conditions: inhibitor 5 μg co-injected i.d. with C2-ceramide 10 μg, read at 1 hr; p<0.05
# Procedure: as §1, §2
# Inhibitors of caspases and neutral sphingomyelinase are described in Table I, which is repeated for convenience. […]
# FIG. 6 depicts the effect of inhibitors of caspases on mechanical hyperalgesia induced by ceramide. […] The inhibitors were co-injected with ceramide and paw-withdrawal thresholds measured 1 hr after the drug administration. […]
# [8] = system: STZ-induced mechanical hyperalgesia; assay: STZ (diabetes)-induced mechanical hyperalgesia, paw-withdrawal threshold; format: in vivo, rat; conditions: single test dose 5 μg i.d. hind paw, rats treated with STZ 50 mg/kg i.v.
# Procedure: as §1, §2
# as §6, with “Doses of the algesic agents were, VCR (200 μg/kg), ddC (50 mg/kg), STZ (50 mg/kg), PGE2 (100 ng/paw) and Epi (100 ng/paw).” left out
# [9] = system: prostaglandin E2 (PGE2)-induced hyperalgesia; assay: PGE2-induced mechanical hyperalgesia, inhibitor co-injected; format: in vivo, rat; conditions: co-injected with PGE2 100 ng/paw, read at 30 min
# Procedure: as §1
# as §2, with “results). […]” for “results).”
# (§8) FIG. 7 depicts the effect of the non-selective caspase inhibitor on prostaglandin E2 (PGE2), epinephrine (Epi)-induced hyperalgesia. The caspase inhibitor was co-injected with PGE2 and epinephrine and the paw-withdrawal thresholds measured 30 min after the drug administration. […]
# [10] = system: epinephrine (Epi)-induced hyperalgesia; assay: Epinephrine-induced mechanical hyperalgesia, inhibitor co-injected; format: in vivo, rat; conditions: co-injected with Epi 100 ng/paw, read at 30 min
# Procedure: as §1
# as §2, with “results). […]” for “results).”
# as §8
# [11] = system: mechanical nociceptive threshold of normal/control rats; assay: Independent effect of inhibitors on baseline mechanical nociceptive threshold in control rats; format: in vivo, rat; conditions: i.d. hind paw, data not shown
# Procedure: as §1, §2
# TNFα, C2-Ceramide, PGE2, Epi, and all the inhibitors (see Table I) were administered intradermally (i.d.) on the dorsal surface of the hind paw in a volume of 2.5-5.0 μl, via a 30-gauge hypodermic needle. […]
# [12] = single i.v. injection: VCR 200 μg/kg, STZ 50 mg/kg
# [13] = listed as inhibitor of caspase 3
# [14] = inhibitor 5 μg co-injected i.d. with TNFα 100 ng, p<0.05
compound,measurement,setting,value
"CC(C)(C)OC(=O)N[C@@H](CC(=O)OCc1ccccc1)C(=O)CCl [BACMK, Boc-Asp(Obzl)-CMK]",effect on ddC-induced mechanical hyperalgesia,[1],significantly attenuated hyperalgesia
same,effect on vincristine-induced mechanical hyperalgesia,[2],significantly attenuated hyperalgesia
"CCCCCCCCCCCCC/C=C/[C@@H](O)[C@H](CO)NC(C)=O [C2-ceramide, N-Acetyl Sphingosine]","effect on mechanical nociceptive threshold, dose response",[3],dose-dependent hyperalgesia
"CNC[C@H](O)c1ccc(O)c(O)c1 [Epi, epinephrine]",reduction in nociceptive threshold,[3],significant reduction in nociceptive threshold
O=C(/C=C/c1ccc(/C=C/C(=O)Nc2ccc(C3=NCCN3)cc2)cc1)Nc1ccc(C2=NCCN2)cc1 [GW4869],effect on TNFα-induced hyperalgesia,[4]; sphingomyelinase inhibitor 1 μg co-injected i.d. with TNFα 100 ng,markedly attenuated
"CCCCC[C@H](O)/C=C/[C@H]1[C@H](O)CC(=O)[C@@H]1C/C=C\CCCC(=O)O [PGE2, prostaglandin E2]",reduction in nociceptive threshold,[3],significant reduction in nociceptive threshold
"CN(N=O)C(=O)N[C@@H]1[C@@H](O)[C@H](O)[C@@H](CO)O[C@@H]1O [STZ, streptozotocin sulfate]",day of maximum hyperalgesic effect after drug administration,[5]; [12],3 days
same,blood glucose level,[6],> 300 mg/dL
"CC[C@]1(O)C[C@H]2CN(CCc3c([nH]c4ccccc34)[C@@](C(=O)OC)(c3cc4c(cc3OC)N(C=O)[C@H]3[C@@](O)(C(=O)OC)[C@H](OC(C)=O)[C@]5(CC)C=CCN6CC[C@]43[C@@H]65)C2)C1 [VCR, vincristine sulfate]",day of maximum hyperalgesic effect after drug administration,[5]; [12],5 days
"Nc1ccn([C@H]2CC[C@@H](CO)O2)c(=O)n1 [ddC, 2′,3′-dideoxycytidine]",reduction in nociceptive threshold,"[5]; single dose ddC 50 mg/kg i.v., from day 1",significant reduction in nociceptive threshold
same,persistence of hyperalgesia,"[5]; single i.v. injection: VCR 200 μg/kg, STZ 50 mg/kg, ddC 50 mg/kg",over 20 days
Ac-Asp-Met-Gin-Asp-CHO [Ac-DMQD-CHO],effect on ddC-induced mechanical hyperalgesia,[1]; [13],significantly reversed mechanical hyperalgesia; also recorded: markedly attenuating ddC hyperalgesia
same,effect on vincristine-induced mechanical hyperalgesia,[2]; [13],significantly reversed mechanical hyperalgesia; also recorded: only moderately attenuated
Cbz-VD(OMe)VAD(OMe)-CH2F [Z-VDAD-FMK],effect on ddC-induced mechanical hyperalgesia,[1],significantly attenuated hyperalgesia
same,effect on vincristine-induced mechanical hyperalgesia,[2],significantly attenuated hyperalgesia
IETD-CHO,effect on ddC-induced mechanical hyperalgesia,[1],significantly attenuated hyperalgesia
same,effect on vincristine-induced mechanical hyperalgesia,[2],significantly attenuated hyperalgesia
TNFα,latency to onset of hyperalgesia,[3]; TNFα 100 ng i.d.,approximately 5 minutes
same,time course of hyperalgesia,"[3]; TNFα 100 ng i.d., at 3 hours",not attenuated at 3 hours
same,"effect on mechanical nociceptive threshold, dose response",[3],dose-dependent (1 ng-1 μg) decrease in mechanical nociceptive threshold
Z-Leu-Glu(OMe)-His-Asp-(OMe)FMK [Z-LEHD-FMK.TFA],effect on ddC-induced mechanical hyperalgesia,[1],significantly attenuated hyperalgesia
same,effect on vincristine-induced mechanical hyperalgesia,[2],significantly attenuated hyperalgesia
Z-Phe-Ala-CH2F [Z-FA-FMK],effect on TNFα-induced hyperalgesia,[4]; [14],not
same,effect on C2-ceramide-induced hyperalgesia,[7],not
Z-Val-Ala-Asp(OMe)-Fluoro methyl ester [Z-VAD-FMK],effect on ddC-induced mechanical hyperalgesia,[1],markedly attenuated; also recorded: markedly attenuating pain-related behavior
same,effect on vincristine-induced mechanical hyperalgesia,[2],markedly attenuated; also recorded: moderately attenuating pain
same,effect on STZ-induced mechanical hyperalgesia,[8],did not produce significant attenuation of hyperalgesia; also recorded: having no effect
same,effect on TNFα-induced hyperalgesia,[4]; [14],markedly attenuated
same,effect on C2-ceramide-induced hyperalgesia,[7],significantly less hyperalgesia
same,effect on PGE2-induced hyperalgesia,[9],had no effect on the hyperalgesia
same,effect on Epi-induced hyperalgesia,[10],had no effect on the hyperalgesia
same,effect of inhibitor alone on mechanical nociceptive threshold,[11],had no effect on mechanical nociceptive threshold
